# Earlier results in US10105372B2, “Methods of treating obesity using antioxidant inflammation modulators” (REATA PHARMACEUTICALS, INC., priority 2010, dated 2018).
# Settings: monkey, in vivo, po; cited from earlier work
smiles,measurement,value
"COC(=O)[C@]12CCC(C)(C)C[C@H]1[C@H]1C(=O)C=C3[C@@]4(C)C=C(C#N)C(=O)C(C)(C)[C@@H]4CC[C@@]3(C)[C@]1(C)CC2 [Form B, CDDO-Me]",bioavailability,higher than that of Form A
